Experimental data taken from patent US8822517B2, “Arylosulfonamides for the treatment of CNS diseases” (Adamed SP. Z O.O., priority 2010, dated 2014).

What was measured:
[1] = molecular target: T1, serotonine transporter (SERT) receptor (Homo sapiens, UniProt P31645); assay: Binding assay SERT (h), [3H]imipramine, CHO cells; details: read-out: SERT [%]
T1 construct: expressed in transfected cells; host or cells: CHO cells
How it was run: (§1)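 Specific ligand binding was taken as total minus non-specific binding, with the latter defined in the presence of surplus unlabelled ligand. Each compound was tested at a single 1×10^−6 M concentration.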

sigma σ receptor = assay: Binding assay σ (non-selective), [3H]DTG, rat cerebral cortex; details: percent inhibition of control specific binding; compounds tested at 1×10^−6 M
How it was run: as §1

adrenergic α1 receptor = assay: Binding assay α1 (non-selective), [3H]prazosin, rat cerebral cortex; details: percent inhibition of control specific binding; compounds tested at 1×10^−6 M
How it was run: as §1

muscarinic M3 receptor = molecular target: T2, muscarinic M3 receptor (Homo sapiens, UniProt P20309); assay: Binding assay M3 (h), [3H]4-DAMP, CHO cells; details: read-out: M3 [%]
T2 construct: expressed in transfected cells; host or cells: CHO cells
T2 sequence (P20309 whole entry): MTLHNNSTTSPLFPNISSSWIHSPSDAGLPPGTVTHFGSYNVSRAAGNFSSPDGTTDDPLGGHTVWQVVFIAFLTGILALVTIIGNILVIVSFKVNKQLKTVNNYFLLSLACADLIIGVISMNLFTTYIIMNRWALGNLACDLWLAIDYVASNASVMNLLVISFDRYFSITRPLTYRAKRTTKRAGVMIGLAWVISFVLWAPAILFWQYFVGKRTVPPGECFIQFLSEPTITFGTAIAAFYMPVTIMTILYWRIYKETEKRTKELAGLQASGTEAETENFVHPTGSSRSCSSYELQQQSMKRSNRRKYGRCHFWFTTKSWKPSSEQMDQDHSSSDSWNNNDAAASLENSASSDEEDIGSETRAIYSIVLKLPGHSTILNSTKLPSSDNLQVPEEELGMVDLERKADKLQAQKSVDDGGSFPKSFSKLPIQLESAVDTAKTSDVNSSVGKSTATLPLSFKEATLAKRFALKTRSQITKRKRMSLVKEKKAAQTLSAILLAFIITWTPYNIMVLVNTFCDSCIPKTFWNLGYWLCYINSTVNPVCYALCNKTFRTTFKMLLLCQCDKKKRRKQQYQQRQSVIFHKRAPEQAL
How it was run: as §1

[2] = molecular target: T3, serotoninergic receptor 5-HT2C (Homo sapiens, UniProt P28335); assay: Binding assay 5-HT2C (h), [3H]mesulergine, HEK-293 cells; details: read-out: 5-HT2C [%]
T3 construct: expressed in transfected cells; host or cells: HEK-293 cells
T3 sequence (P28335 33-458): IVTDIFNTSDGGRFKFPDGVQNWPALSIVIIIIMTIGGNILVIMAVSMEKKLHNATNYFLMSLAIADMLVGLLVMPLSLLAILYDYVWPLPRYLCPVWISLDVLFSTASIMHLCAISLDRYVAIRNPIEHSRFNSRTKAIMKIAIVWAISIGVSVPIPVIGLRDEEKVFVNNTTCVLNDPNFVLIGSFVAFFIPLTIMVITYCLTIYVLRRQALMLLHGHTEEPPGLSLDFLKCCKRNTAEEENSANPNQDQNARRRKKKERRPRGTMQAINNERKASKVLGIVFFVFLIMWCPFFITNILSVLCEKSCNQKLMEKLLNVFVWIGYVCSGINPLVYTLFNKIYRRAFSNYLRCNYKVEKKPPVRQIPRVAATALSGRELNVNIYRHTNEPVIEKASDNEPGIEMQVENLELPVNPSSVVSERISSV
How it was run: as §1

[3] = molecular target: T4, serotoninergic 5-HT6 receptor (Homo sapiens, UniProt P50406); assay: Cellular functional assay, serotoninergic 5-HT6 receptor (agonism/antagonism); assay type: cell-based; details: for activation at 1 µM: agonist effect, percent of control specific agonist response, compounds tested at 1×10^−6M, read-out: 5-HT6-ag [%]; for inhibition at 1 µM: read-out: 5-HT6-antag. [%]
T4 sequence (P50406 whole entry): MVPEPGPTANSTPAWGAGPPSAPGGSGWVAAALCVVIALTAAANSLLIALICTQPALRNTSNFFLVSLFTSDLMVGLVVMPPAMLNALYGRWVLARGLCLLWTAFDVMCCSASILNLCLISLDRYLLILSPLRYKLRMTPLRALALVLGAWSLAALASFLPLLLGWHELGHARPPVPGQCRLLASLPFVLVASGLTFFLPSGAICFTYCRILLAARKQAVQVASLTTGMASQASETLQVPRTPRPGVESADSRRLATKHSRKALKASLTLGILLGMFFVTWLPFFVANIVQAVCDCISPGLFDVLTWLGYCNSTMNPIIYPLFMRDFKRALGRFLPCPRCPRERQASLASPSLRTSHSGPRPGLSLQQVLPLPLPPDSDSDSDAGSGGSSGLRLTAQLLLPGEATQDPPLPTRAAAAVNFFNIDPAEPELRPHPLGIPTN
Procedure: (§2) The compounds were tested at the concentration of 1×10^−6M.
(§3) In the Tables ag refers to agonism, and antag to antagonism).

[4] = molecular target: T5, serotoninergic 5-HT7 receptor (Homo sapiens, UniProt P34969); assay: Cellular functional assay, serotoninergic 5-HT7 receptor (agonism/antagonism); assay type: cell-based; details: for activation at 1 µM: agonist effect, percent of control specific agonist response, compounds tested at 1×10^−6M, read-out: 5-HT7-ag [%]; for inhibition at 1 µM: read-out: 5-HT7-antag. [%]
T5 sequence (P34969 whole entry): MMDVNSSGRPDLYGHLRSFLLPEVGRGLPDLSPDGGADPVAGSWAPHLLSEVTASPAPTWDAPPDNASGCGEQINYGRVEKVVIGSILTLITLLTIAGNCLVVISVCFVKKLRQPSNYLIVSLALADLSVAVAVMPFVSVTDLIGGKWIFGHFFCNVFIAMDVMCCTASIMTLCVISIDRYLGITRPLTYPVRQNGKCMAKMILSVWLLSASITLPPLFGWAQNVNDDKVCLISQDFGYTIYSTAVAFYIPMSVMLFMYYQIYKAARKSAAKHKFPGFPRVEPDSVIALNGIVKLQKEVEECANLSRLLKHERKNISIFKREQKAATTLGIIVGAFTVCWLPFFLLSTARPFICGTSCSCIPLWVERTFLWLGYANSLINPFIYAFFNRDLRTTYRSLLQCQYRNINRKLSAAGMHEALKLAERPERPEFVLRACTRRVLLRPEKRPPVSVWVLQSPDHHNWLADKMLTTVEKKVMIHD
Procedure: as §2, §3

dopaminergic D3 receptor = dopaminergic D3 receptor (Homo sapiens, UniProt P35462); assay: Binding assay D3 (h), [3H]methyl-spiperone, CHO cells; parameters: expressed in transfected cells; host or cells: CHO cells; details: read-out: D3 [%]
dopaminergic D3 receptor, sequence (P35462 whole entry): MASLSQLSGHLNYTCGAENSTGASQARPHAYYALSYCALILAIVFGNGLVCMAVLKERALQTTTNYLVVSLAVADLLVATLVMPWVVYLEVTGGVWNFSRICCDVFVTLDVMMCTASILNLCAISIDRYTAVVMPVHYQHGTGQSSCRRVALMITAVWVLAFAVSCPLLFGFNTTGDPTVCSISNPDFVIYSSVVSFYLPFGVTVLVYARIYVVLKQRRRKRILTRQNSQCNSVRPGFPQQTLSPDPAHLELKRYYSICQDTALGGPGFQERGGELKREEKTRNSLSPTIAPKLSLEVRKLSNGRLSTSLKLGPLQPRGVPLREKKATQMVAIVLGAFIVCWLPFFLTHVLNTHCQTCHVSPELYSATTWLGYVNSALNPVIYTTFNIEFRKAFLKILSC
How it was run: as §1

[5] = molecular target: T4, serotoninergic 5-HT6 receptor; assay: Binding assay 5-HT6 (h), [3H]LSD, CHO cells; parameters: expressed in transfected cells; host or cells: CHO cells; details: read-out: 5-HT6
How it was run: as §1

[6] = molecular target: T5, serotoninergic 5-HT7 receptor; assay: Binding assay 5-HT7 (h), [3H]LSD, CHO cells; parameters: expressed in transfected cells; host or cells: CHO cells; details: read-out: 5-HT7
How it was run: as §1

adrenergic α2C receptor = molecular target: T6, adrenergic α2C receptor (Homo sapiens, UniProt P18825); assay: Binding assay α2C (h), [3H]RX 821002, CHO cells; parameters: expressed in transfected cells; host or cells: CHO cells; details: read-out: α2C [%]
T6 sequence (P18825 1-462): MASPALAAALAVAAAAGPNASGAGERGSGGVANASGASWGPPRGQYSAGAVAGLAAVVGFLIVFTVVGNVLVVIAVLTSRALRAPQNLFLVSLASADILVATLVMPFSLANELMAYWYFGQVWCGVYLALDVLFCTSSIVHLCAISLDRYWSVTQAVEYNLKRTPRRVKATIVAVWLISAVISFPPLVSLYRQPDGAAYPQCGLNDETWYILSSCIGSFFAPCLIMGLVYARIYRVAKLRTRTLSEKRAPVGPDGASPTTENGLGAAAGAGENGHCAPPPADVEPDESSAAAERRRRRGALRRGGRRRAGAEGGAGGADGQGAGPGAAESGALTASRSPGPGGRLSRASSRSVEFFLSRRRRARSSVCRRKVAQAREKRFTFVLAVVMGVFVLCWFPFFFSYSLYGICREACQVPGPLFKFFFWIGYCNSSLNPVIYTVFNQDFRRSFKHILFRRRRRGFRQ
How it was run: as §1

dopaminergic D2 receptor = dopaminergic D2 receptor (Homo sapiens, UniProt P14416); assay: Binding assay D2S (h), [3H]methyl-spiperone, HEK-293 cells; parameters: expressed in transfected cells; host or cells: HEK-293 cells; details: read-out: D2 [%]
dopaminergic D2 receptor, sequence (P14416 1-414 isoform P14416-2): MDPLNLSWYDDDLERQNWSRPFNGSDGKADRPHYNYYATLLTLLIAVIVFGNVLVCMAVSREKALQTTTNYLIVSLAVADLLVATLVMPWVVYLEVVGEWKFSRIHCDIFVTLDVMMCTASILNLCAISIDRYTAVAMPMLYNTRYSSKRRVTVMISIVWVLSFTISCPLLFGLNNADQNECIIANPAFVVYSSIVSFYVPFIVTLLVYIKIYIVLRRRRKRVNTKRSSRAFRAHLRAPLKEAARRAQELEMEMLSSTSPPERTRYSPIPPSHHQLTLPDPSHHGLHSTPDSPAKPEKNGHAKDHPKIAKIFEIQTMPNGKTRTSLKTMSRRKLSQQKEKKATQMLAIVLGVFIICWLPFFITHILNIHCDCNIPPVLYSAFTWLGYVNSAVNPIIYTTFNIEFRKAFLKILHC
How it was run: as §1

[7] = molecular target: T7, serotoninergic 5-HT1A receptor (Homo sapiens, UniProt P08908); assay: Binding assay 5-HT1A (h), [3H]8-OH-DPAT, HEK-293 cells; parameters: expressed in transfected cells; host or cells: HEK-293 cells; details: read-out: 5-HT1A
T7 sequence (P08908 1-422): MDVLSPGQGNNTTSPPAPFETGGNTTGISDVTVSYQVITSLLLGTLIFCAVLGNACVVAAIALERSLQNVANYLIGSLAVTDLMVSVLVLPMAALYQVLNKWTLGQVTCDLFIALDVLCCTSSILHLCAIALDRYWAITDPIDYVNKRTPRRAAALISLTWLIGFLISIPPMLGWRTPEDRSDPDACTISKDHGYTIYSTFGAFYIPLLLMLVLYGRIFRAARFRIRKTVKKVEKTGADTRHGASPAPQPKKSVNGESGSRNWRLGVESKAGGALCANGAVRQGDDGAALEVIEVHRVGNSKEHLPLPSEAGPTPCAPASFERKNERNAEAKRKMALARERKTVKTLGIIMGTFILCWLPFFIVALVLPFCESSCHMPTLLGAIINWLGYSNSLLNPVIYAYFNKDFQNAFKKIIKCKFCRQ
How it was run: as §1

[8] = molecular target: serotoninergic 5-HT2A receptor (Homo sapiens, UniProt P28223); assay: Binding assay 5-HT2A (h), [3H]ketanserin, HEK-293 cells; parameters: expressed in transfected cells; host or cells: HEK-293 cells; details: read-out: 5-HT2A
serotoninergic 5-HT2A receptor, sequence (P28223 whole entry): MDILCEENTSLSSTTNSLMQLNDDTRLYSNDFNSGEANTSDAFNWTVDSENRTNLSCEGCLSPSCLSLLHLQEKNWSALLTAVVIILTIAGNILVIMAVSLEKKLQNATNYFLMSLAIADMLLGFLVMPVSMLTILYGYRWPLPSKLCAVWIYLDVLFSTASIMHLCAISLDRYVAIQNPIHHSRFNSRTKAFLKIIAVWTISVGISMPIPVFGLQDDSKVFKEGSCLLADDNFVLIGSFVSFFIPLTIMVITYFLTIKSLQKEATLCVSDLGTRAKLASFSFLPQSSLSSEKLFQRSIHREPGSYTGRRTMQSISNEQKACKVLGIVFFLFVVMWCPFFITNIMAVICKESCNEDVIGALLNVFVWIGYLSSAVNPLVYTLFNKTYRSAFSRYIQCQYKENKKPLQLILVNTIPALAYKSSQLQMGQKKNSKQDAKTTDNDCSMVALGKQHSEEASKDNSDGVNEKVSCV
How it was run: as §1

[9] = molecular target: histaminergic H1 receptor (Homo sapiens, UniProt P35367); assay: Binding assay H1 (h), [3H]pyrilamine, HEK-293 cells; parameters: expressed in transfected cells; host or cells: HEK-293 cells; details: read-out: H1 [%]
histaminergic H1 receptor, sequence (P35367 whole entry): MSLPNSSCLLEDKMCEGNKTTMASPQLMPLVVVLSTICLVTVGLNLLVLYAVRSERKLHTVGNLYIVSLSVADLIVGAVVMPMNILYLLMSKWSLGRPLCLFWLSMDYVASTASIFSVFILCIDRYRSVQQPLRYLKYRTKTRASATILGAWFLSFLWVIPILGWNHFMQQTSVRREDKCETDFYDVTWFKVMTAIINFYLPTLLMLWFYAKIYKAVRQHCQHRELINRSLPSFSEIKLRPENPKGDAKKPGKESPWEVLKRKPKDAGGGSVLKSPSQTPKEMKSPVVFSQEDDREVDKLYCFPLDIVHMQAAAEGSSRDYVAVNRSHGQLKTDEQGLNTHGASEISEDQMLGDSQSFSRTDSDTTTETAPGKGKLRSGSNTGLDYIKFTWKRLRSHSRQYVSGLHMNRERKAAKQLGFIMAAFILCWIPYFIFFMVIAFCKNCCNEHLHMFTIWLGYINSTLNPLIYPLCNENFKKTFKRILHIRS
How it was run: as §1

T1 sequence (P31645 whole entry): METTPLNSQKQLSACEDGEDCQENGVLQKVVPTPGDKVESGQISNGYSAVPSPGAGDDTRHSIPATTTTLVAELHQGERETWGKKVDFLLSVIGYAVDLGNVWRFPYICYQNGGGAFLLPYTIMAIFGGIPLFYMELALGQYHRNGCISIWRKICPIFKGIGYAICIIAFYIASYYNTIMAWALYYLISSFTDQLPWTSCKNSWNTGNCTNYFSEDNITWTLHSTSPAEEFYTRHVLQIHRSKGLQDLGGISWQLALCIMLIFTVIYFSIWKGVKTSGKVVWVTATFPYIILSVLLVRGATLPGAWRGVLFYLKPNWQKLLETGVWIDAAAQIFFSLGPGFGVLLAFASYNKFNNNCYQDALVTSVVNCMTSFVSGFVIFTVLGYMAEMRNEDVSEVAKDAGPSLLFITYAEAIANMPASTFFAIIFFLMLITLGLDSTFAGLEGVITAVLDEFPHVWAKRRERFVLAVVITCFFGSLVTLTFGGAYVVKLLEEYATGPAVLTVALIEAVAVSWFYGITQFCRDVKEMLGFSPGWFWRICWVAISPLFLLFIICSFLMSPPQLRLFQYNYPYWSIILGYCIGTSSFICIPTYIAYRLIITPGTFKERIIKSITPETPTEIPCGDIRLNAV

Compound	inhibition at 1 µM [1]	σ [%] (sigma σ receptor)	α1 [%] (adrenergic α1 receptor)	inhibition at 1 µM (muscarinic M3 receptor)	inhibition at 1 µM [2]	activation at 1 µM [3]	inhibition at 1 µM [3]	activation at 1 µM [4]	inhibition at 1 µM [4]	inhibition at 1 µM (dopaminergic D3 receptor)	inhibition at 1 µM [5]	inhibition at 1 µM [6]	inhibition at 1 µM (adrenergic α2C receptor)	inhibition at 1 µM (dopaminergic D2 receptor)	inhibition at 1 µM [7]	inhibition at 1 µM [8]	inhibition at 1 µM [9]
O=S(=O)(NCCN1CCN(c2nsc3ccccc23)CC1)c1ccc2ccccc2c1 [Compound 10, N-(2-(4-(1,2-Benzothiazol-3-yl)piperazin-1-yl)ethyl)naphthalene-2-sulphonamide]	50%	31%	79%	-2%	54%	1%	-16%	0%	85%	97%	37%	99%	98%	94%	97%	99%	81%
Cc1cccc(S(=O)(=O)NCCN2CCN(c3nsc4ccccc34)CC2)c1 [Compound 11, N-(2-(4-(1,2-Benzothiazol-3-yl)piperazin-1-yl)ethyl)-3-methylbenzenesulphonamide]	1%	21%	85%	-6%	40%	-1%	-10%	0%	85%	91%	54%	99%	94%	89%	99%	99%	74%
O=c1[nH]c2ccc(S(=O)(=O)NCCN3CCN(c4nsc5ccccc45)CC3)cc2o1 [Compound 12, N-(2-(4-(1,2-Benzothiazol-3-yl)piperazin-1-yl)ethyl)-2-oxo-3H-1,3-benzoxazole-6-sulphonamide]	7%	4%	67%	-9%	17%	-1%	-2%	-1%	68%	92%	80%	89%	83%	93%	99%	99%	79%
Cc1cccc(S(=O)(=O)NCCCCN2CCC(c3noc4cc(F)ccc34)CC2)c1 [Compound 19, N-[4-[4-(6-Fluoro-1,2-benzoxazol-3-yl)piperidin-1-yl]butyl]-3-methylbenzenesulphonamide]	8%	92%	99%	9%	56%	-1%	23%	-1%	99%	90%	69%	100%	100%	97%	64%	100%	79%
O=S(=O)(NCCCN1CCC(c2noc3cc(F)ccc23)CC1)c1cccc2ccccc12 [Compound 20, N-[3-[4-(6-Fluoro-1,2-benzoxazol-3-yl)piperidin-1-yl]propyl]naphthalene-1-sulphonamide]	85%	81%	99%	-9%	75%	-2%	23%	-1%	101%	96%	85%	101%	99%	98%	71%	100%	78%
O=S(=O)(NCCCN1CCC(c2noc3cc(F)ccc23)CC1)c1ccc2ccccc2c1 [Compound 21, N-[3-[4-(6-Fluoro-1,2-benzoxazol-3-yl)piperidin-1-yl]propyl]naphthalene-2-sulphonamide]	46%	82%	97%	2%	87%	-2%	39%	0%	98%	97%	93%	99%	98%	99%	77%	100%	90%
O=S(=O)(NCCN1CCC(c2noc3cc(F)ccc23)CC1)c1cccc2ccccc12 [Compound 23, N-[2-[4-(6-Fluoro-1,2-benzoxazol-3-yl)piperidin-1-yl]ethyl]naphthalene-1-sulphonamide]	68%	82%	97%	-2%	44%	0%	1%	0%	88%	93%	69%	96%	99%	97%	85%	100%	67%
